Results: publication PMC11351612, “Heteronuclear Complexes with Promising Anticancer Activity against Colon Cancer” (Biomedicines, 2024)

Experiments:
[1] = tested on: Caco-2/TC7 cells; assay: Cell cycle analysis (PI, flow cytometry), Caco-2/TC7; format: cell-based, human; conditions: Caco-2/TC7, IC50 concentration, 48 h and 72 h
Protocol: (§1) Cell cycle analysis. After treatment, the cells were fixed in 70% ice-cold ethanol and stored at 4 °C for 24 h. After centrifugation, the cells were rehydrated in PBS (phosphate-buffered saline) and stained with propidium iodide (PI, 50 μg/mL) solution containing RNase A (100 μg/mL). PI-stained cells were analysed for DNA content in a FACSARRAY BD equipped with an argon ion laser. […] Cell cycle distribution was determined on a linear scale. The percentage of cells in cycle phases was determined using MODIFIT 3.0 verity software.
(§2) To investigate the influence of the heteronuclear derivative 1 on the cell cycle distribution of Caco-2 cells, propidium iodide-stained cells were analysed by flow cytometry. The distribution of cells found in each stage of the cell cycle for the control samples was sufficiently homogeneous (Figure 4). For both cell lines, samples analysed after 48 h of incubation had 22% of the cells in the G0/G1 phase, ca. 45% of cells in the synthesis phase, and approximately 30% of cells undergoing the G2 phase or cell division. The low percentage of cells observed in the G0 and G1 phases may be indicative of elevated proliferation and an uncontrolled growth of cancerous cells. It would be of interest to ascertain whether the complexes chosen for the treatments could arrest the cell cycle at phases preceding cell division, thereby inhibiting the proliferation of cancer cells.

[2] = tested on: Caco-2/PD7 cells; assay: Cell cycle analysis (PI, flow cytometry), Caco-2/PD7; format: cell-based, human; conditions: Caco-2/PD7, IC50 concentration, 72 h
Protocol: as §1, §2

[3] = Solubility in water at 25 °C
[4] = tested on: Caco-2/PD7 cells; assay: Annexin V/propidium iodide apoptosis assay, Caco-2/PD7; format: cell-based, human; conditions: Caco-2/PD7, IC50 concentration, 72 h; control 35.8%
Protocol: (§3) Study of cell death. After the appropriate incubation, cells were collected and stained with annexin V-FTIC, according to the manufacturer’s instructions. A negative control was prepared, containing unreacted cells to define the basal level of apoptotic and necrotic or dead cells. After incubation, the cells were transferred to flow-cytometry tubes and washed twice with temperate phosphate-buffered saline (PBS), suspended in 100 μL annexin V binding buffer (10 mM Hepes/NaOH, pH 7.4, 140 mM NaCl, 2.5 mM CaCl2), then 5 μL of annexin V-FITC, and 5 μL of PI was added to each 100 μL of cell suspension. After incubation for 15 min at room temperature in the dark, 400 μL of 1× annexin binding buffer was added and analysed by flow cytometry within one hour. The signal intensity was measured using a FACSARIA BD and analysed using FASCDIVA BD.
(§4) This inhibition of apoptosis produces a fast growth and proliferation of cancerous cells. The population of early and late apoptotic cells increased to 35% after treatment with complex 1 in comparison with the vehicle-treated cells (12%). […] Additionally, the effect observed after treating the cells with a dosage equal to the IC50 concentration is time-dependent. […]

[5] = tested on: pIRES2-EGFP (5308 pb) plasmid DNA; assay: Gel electrophoretic mobility of plasmid DNA; format: binding; conditions: metal-to-base pair ratios 0.5, 1, 2; 0.8% agarose gel
Protocol: Adducts with pIRES2-EGFP (5308 pb) plasmid DNA (Catalog #6029-1) were prepared by adding the required volume of a freshly prepared solution of metal complexes in MilliQ water. The concentration of pIRES2-EGFP in the reaction mixture was 117 ng/µL, and the complexes’ concentration was varied to give different metal-to-base pair stoichiometries (0.5, 1 and 2). The mobility of the metal complex-treated pIRES2-EGFP samples was analysed by gel electrophoresis on a 0.8% (w/v) agarose gel (Boehringer-Mannheim, Mannheim, Germany) at […] at 25 °C in Tris-acetate/EDTA buffer. The gel was stained for 30 min in […] (w/v) ethidium bromide and the bands were visualised with a UVP gel scanner.
In addition, the interaction of both complexes with DNA was also studied by their ability to modify the electrophoretic mobility of the pIRES2-EGFP (5308 pb) plasmid DNA and compared to cisplatin (Figure 7).

[6] = tested on: Caco-2/TC7 cells; assay: Annexin V/propidium iodide apoptosis assay, Caco-2/TC7; format: cell-based, human; conditions: Caco-2/TC7, IC50 concentration; vehicle 12%
Protocol: as §3, §4

**Q.** What does the source list for [Cu{Au(Spy)(PTA)}2]PF6 [compound 1]?
**A.** Effect on cell cycle distribution [1]: arrest of the cell cycle in Caco-2/TC7 cells within the G0/G1 phases; Effect on cell cycle distribution [2]: not enough living cells being found for the analysis; S 25 °C, H2O [3]: < 0.5 g/L; Apoptotic cells (early + late apoptosis) [4]: 62.4%; Effect on electrophoretic mobility of plasmid DNA [5]: significant effect on the mobility; Population of early and late apoptotic cells [6]: 35%
